The results in this text go back to patent US8975398B2, “NAMPT inhibitors” (AbbVie Inc., priority 2012, dated 2015).

Molecules are shown by their SMILES.

In this test the test system is PC3 cells. The test is described as follows: NAMPT Cell Proliferation Assay (Cell Titer Glo; also performed in the presence of 0.3 mM nicotinamide mononucleotide). As to conditions: Homo sapiens, PC-3, 120 h, 5 days incubation, cell viability by Cell Titer Glo. The test is classed as cell-based. How it is done: NAMPT Cell Proliferation Assay
PC3 cells were seeded in 96-well black plates (Corning #3904) at 500 cells/well in 90 μl of RPMI media containing 10% heat-inactivated FBS and incubated overnight at 37° C. and 5% CO2 to allow cells to attach to wells. The following day, test compounds were serially diluted in neat DMSO to 1000× final concentrations prior to dilution with RPMI media to 10× and 1% DMSO. Ten μL of the 10× compounds were then transferred to wells containing cells to produce a dose response of 10-fold dilutions from 10 μM to 1×10^−5 μM. Cells were incubated for 5 days at 37° C. and 5% CO2, then cell viability was measured using Cell Titer Glo reagent (Promega #G7571). Percent inhibition values were calculated and fitted to a sigmoidal dose response curves using Assay Explorer software to determine IC50s.
Usually IC50 stands for the concentration that inhibits the measured activity by half. Regarding `Cc1ccnnc1N1CC(C(=O)Nc2ccc(C3CCN(C(=O)c4ccccc4)CC3)cc2)C1` [Example 906, N-[4-(1-benzoylpiperidin-4-yl)phenyl]-1-(4-methylpyridazin-3-yl)azetidine-3-carboxamide], the IC50 came out at 0.879 nM. As for `O=C(N[C@H]1CCN(c2cccnn2)C1)c1ccc(C2CCN(C(=O)c3ccccc3F)CC2)o1` [Example 907, 5-[1-(2-fluorobenzoyl)piperidin-4-yl]-N-[(3S)-1-(pyridazin-3-yl)pyrrolidin-3-yl]furan-2-carboxamide], the half-maximal inhibitory concentration (IC50) was 6750 nM.

As to `Cc1nnccc1N1CC(C(=O)Nc2ccc(C3CCN(C(=O)c4ccccc4)CC3)cc2)C1` [Example 908, N-[4-(1-benzoylpiperidin-4-yl)phenyl]-1-(3-methylpyridazin-4-yl)azetidine-3-carboxamide], the IC50 was 92.5 nM. `Cc1nnccc1N1CC(C(=O)Nc2ccc(C3CCN(C(=O)c4ccccc4F)CC3)cc2)C1` [Example 909, N-{4-[1-(2-fluorobenzoyl)piperidin-4-yl]phenyl}-1-(3-methylpyridazin-4-yl)azetidine-3-carboxamide]: the IC50 was 67 nM.

Regarding `Nc1ncccc1C(=O)N1CCC(c2ccc(NC(=O)C3CN(c4cccnn4)C3)cc2)CC1` [Example 910, N-(4-{1-[(2-aminopyridin-3-yl)carbonyl]piperidin-4-yl}phenyl)-1-(pyridazin-3-yl)azetidine-3-carboxamide], the IC50 stood at 6.51 nM.

Consider `Cn1nc(C(=O)O)cc1-c1ccc(NC(=O)C2CN(c3cccnn3)C2)cc1` [Example 911, 1-methyl-5-[4-({[1-(pyridazin-3-yl)azetidin-3-yl]carbonyl}amino)phenyl]-1H-pyrazole-3-carboxylic acid], for which the IC50 was above 10000 nM.

On to `CCOC(=O)c1cc(-c2ccc(NC(=O)C3CN(c4cccnn4)C3)cc2)n(C)n1` [Example 912, ethyl 1-methyl-5-[4-({[1-(pyridazin-3-yl)azetidin-3-yl]carbonyl}amino)phenyl]-1H-pyrazole-3-carboxylate], for which the IC50 turned out to be 64.2 nM. Then `CCOC(=O)c1cc(-c2ccc(NC(=O)C3CN(c4cccnn4)C3)cc2)n(-c2ccccc2)n1` [Example 913, ethyl 1-phenyl-5-[4-({[1-(pyridazin-3-yl)azetidin-3-yl]carbonyl}amino)phenyl]-1H-pyrazole-3-carboxylate], with 66.3 nM; and `O=C(Nc1ccc(C2CCN(C(=O)c3ccccc3F)CC2)nc1)C1CN(c2cccnn2)C1` [Example 914, N-{6-[1-(2-fluorobenzoyl)piperidin-4-yl]pyridin-3-yl}-1-(pyridazin-3-yl)azetidine-3-carboxamide], with 2.7 nM. Regarding `Cc1ccc(N2CC(C(=O)Nc3ccc(O[C@@H]4CCN(C(=O)CC(C)C)C4)cc3)C2)nn1` [Example 915, N-(4-{[(3R)-1-(3-methylbutanoyl)pyrrolidin-3-yl]oxy}phenyl)-1-(6-methylpyridazin-3-yl)azetidine-3-carboxamide], the concentration for half-maximal inhibition (IC50) is 139 nM. Under `Cc1ccc(N2CC(C(=O)Nc3ccc(O[C@@H]4CCN(C(=O)C(C)C)C4)cc3)C2)nn1` [Example 916, N-(4-{[(3R)-1-(2-methylpropanoyl)pyrrolidin-3-yl]oxy}phenyl)-1-(6-methylpyridazin-3-yl)azetidine-3-carboxamide] stands 646 nM. In the case of `Cc1ccc(N2CC(C(=O)Nc3ccc(O[C@@H]4CCN(C(=O)c5ccc(F)cc5F)C4)cc3)C2)nn1` [Example 917, N-(4-{[(3R)-1-(2,4-difluorobenzoyl)pyrrolidin-3-yl]oxy}phenyl)-1-(6-methylpyridazin-3-yl)azetidine-3-carboxamide], the half-inhibitory concentration (IC50) stood at 101 nM. For `Cc1ccc(N2CC(C(=O)Nc3ccc(O[C@@H]4CCN(C(=O)c5cscn5)C4)cc3)C2)nn1` [Example 918, 1-(6-methylpyridazin-3-yl)-N-(4-{[(3R)-1-(1,3-thiazol-4-ylcarbonyl)pyrrolidin-3-yl]oxy}phenyl)azetidine-3-carboxamide], the IC50 was 717 nM. Take `O=C(Nc1ccc(C2CCN(C(=O)CCC(F)(F)F)CC2)nc1)C1CN(c2cccnn2)C1` [Example 919, 1-(pyridazin-3-yl)-N-{6-[1-(4,4,4-trifluorobutanoyl)piperidin-4-yl]pyridin-3-yl}azetidine-3-carboxamide]: the half-maximal inhibitory concentration (IC50) is 51.9 nM. Under `CC(C)(C)CC(=O)N1CCC(c2ccc(NC(=O)C3CN(c4cccnn4)C3)cn2)CC1` [Example 920, N-{6-[1-(3,3-dimethylbutanoyl)piperidin-4-yl]pyridin-3-yl}-1-(pyridazin-3-yl)azetidine-3-carboxamide] stands 5.43 nM; under `Cc1ccnnc1N1CC[C@H](C(=O)Nc2ccc(C3CCN(C(=O)c4ccccc4)CC3)cc2)C1` [Example 921, (3S)—N-[4-(1-benzoylpiperidin-4-yl)phenyl]-1-(4-methylpyridazin-3-yl)pyrrolidine-3-carboxamide], 2.9 nM; under `Cc1ccnnc1N1CC[C@H](C(=O)Nc2ccc(C3CCN(C(=O)C(C)(C)C)CC3)cc2)C1` [Example 922, (3S)—N-{4-[1-(2,2-dimethylpropanoyl)piperidin-4-yl]phenyl}-1-(4-methylpyridazin-3-yl)pyrrolidine-3-carboxamide], 3.38 nM. As for `O=C(Nc1ccc(-c2cc(C(F)(F)F)nn2-c2ccccc2)cc1)C1CN(c2cccnn2)C1` [Example 923, N-{4-[1-phenyl-3-(trifluoromethyl)-1H-pyrazol-5-yl]phenyl}-1-(pyridazin-3-yl)azetidine-3-carboxamide], the IC50 stood at 69.4 nM. Take `CC(C)(C)Cn1cc(-c2ccc(NC(=O)C3CN(c4cccnn4)C3)cn2)cn1` [Example 924, N-{6-[1-(2,2-dimethylpropyl)-1H-pyrazol-4-yl]pyridin-3-yl}-1-(pyridazin-3-yl)azetidine-3-carboxamide]: the IC50 worked out at 1.17 nM. As for `CC(C)(C)OC(=O)N1CCC(n2cc(NC(=O)C3CN(c4cccnn4)C3)cn2)CC1` [Example 925, tert-butyl 4-[4-({[1-(pyridazin-3-yl)azetidin-3-yl]carbonyl}amino)-1H-pyrazol-1-yl]piperidine-1-carboxylate], the IC50 came out at 10.1 nM. In the case of `CC1(Cn2cc(-c3ccc(NC(=O)C4CN(c5cccnn5)C4)cn3)cn2)CCNCC1` [Example 926, N-(6-{1-[(4-methylpiperidin-4-yl)methyl]-1H-pyrazol-4-yl}pyridin-3-yl)-1-(pyridazin-3-yl)azetidine-3-carboxamide], the 50% inhibitory concentration (IC50) came out at 602 nM. Take `O=C(Nc1ccc(CC2CCN(C(=O)c3cncs3)CC2)cc1)C1CN(c2cccnn2)C1` [Example 927, 1-(pyridazin-3-yl)-N-(4-{[1-(1,3-thiazol-5-ylcarbonyl)piperidin-4-yl]methyl}phenyl)azetidine-3-carboxamide]: the IC50 was 3.9 nM. `O=C(Nc1ccc(CC2CCN(C(=O)C3CCCC3)CC2)cc1)C1CN(c2cccnn2)C1` [Example 928, N-(4-{[1-(cyclopentylcarbonyl)piperidin-4-yl]methyl}phenyl)-1-(pyridazin-3-yl)azetidine-3-carboxamide]: the IC50 is 2.56 nM. With `O=C(Nc1ccc(CC2CCN(C(=O)c3cn[nH]c3)CC2)cc1)C1CN(c2cccnn2)C1` [Example 929, N-(4-{[1-(1H-pyrazol-4-ylcarbonyl)piperidin-4-yl]methyl}phenyl)-1-(pyridazin-3-yl)azetidine-3-carboxamide], the IC50 is 27.1 nM.

As to `CCC(C)(C)C(=O)N1CCC(Cc2ccc(NC(=O)C3CN(c4cccnn4)C3)cc2)CC1` [Example 930, N-(4-{[1-(2,2-dimethylbutanoyl)piperidin-4-yl]methyl}phenyl)-1-(pyridazin-3-yl)azetidine-3-carboxamide], the IC50 was determined as 2.7 nM. As to `CC1CC1C(=O)N1CCC(Cc2ccc(NC(=O)C3CN(c4cccnn4)C3)cc2)CC1` (centres unmarked) [Example 931, N-[4-({1-[(2-methylcyclopropyl)carbonyl]piperidin-4-yl}methyl)phenyl]-1-(pyridazin-3-yl)azetidine-3-carboxamide], the concentration for half-maximal inhibition (IC50) was 3.17 nM.

In the case of `CSCC(=O)N1CCC(Cc2ccc(NC(=O)C3CN(c4cccnn4)C3)cc2)CC1` [Example 932, N-[4-({1-[(methylsulfanyl)acetyl]piperidin-4-yl}methyl)phenyl]-1-(pyridazin-3-yl)azetidine-3-carboxamide], the half-inhibitory concentration (IC50) turned out to be 5.82 nM.

With `O=C(Nc1ccc(CC2CCN(C(=O)CC3C[C@@H]4CC[C@H]3C4)CC2)cc1)C1CN(c2cccnn2)C1` (stereo partly drawn) [Example 933, N-[4-({1-[(1S,4R)-bicyclo[2.2.1]hept-2-ylacetyl]piperidin-4-yl}methyl)phenyl]-1-(pyridazin-3-yl)azetidine-3-carboxamide], the concentration for half-maximal inhibition (IC50) was 2.39 nM. On to `CCCC(C)C(=O)N1CCC(Cc2ccc(NC(=O)C3CN(c4cccnn4)C3)cc2)CC1` (centres unmarked) [Example 934, N-(4-{[1-(2-methylpentanoyl)piperidin-4-yl]methyl}phenyl)-1-(pyridazin-3-yl)azetidine-3-carboxamide], for which the IC50 came out at 2.45 nM. On to `CC(C)CCC(=O)N1CCC(Cc2ccc(NC(=O)C3CN(c4cccnn4)C3)cc2)CC1` [Example 935, N-(4-{[1-(4-methylpentanoyl)piperidin-4-yl]methyl}phenyl)-1-(pyridazin-3-yl)azetidine-3-carboxamide], for which the concentration for half-maximal inhibition (IC50) is 2 nM.

Regarding `CSCCC(=O)N1CCC(Cc2ccc(NC(=O)C3CN(c4cccnn4)C3)cc2)CC1` [Example 936, N-[4-({1-[3-(methylsulfanyl)propanoyl]piperidin-4-yl}methyl)phenyl]-1-(pyridazin-3-yl)azetidine-3-carboxamide], the half-inhibitory concentration (IC50) was found to be 2.18 nM. Regarding `O=C(Nc1ccc(CC2CCN(C(=O)c3cscn3)CC2)cc1)C1CN(c2cccnn2)C1` [Example 937, 1-(pyridazin-3-yl)-N-(4-{[1-(1,3-thiazol-4-ylcarbonyl)piperidin-4-yl]methyl}phenyl)azetidine-3-carboxamide], the IC50 stood at 2.62 nM.
